Assay results from paper PMC12094199 (Science Advances, 2025).

Legend:
[1] = Cell survival assay; assay type: cell-based; settings: human, HEK-293 cells
[2] = system: U87MG cells; experiment: Cell survival assay; assay type: cell-based; settings: Homo sapiens, U-87 MG, 48 h, read-out: IC50 (cytotoxicity)

Question: What does the source list for `CC(=O)O[C@H]1C(=O)[C@@]2(C)[C@H]([C@H](OC(=O)c3ccccc3)[C@]3(O)C[C@H](OC(=O)[C@H](O)[C@@H](NC(=O)c4ccccc4)c4ccccc4)C(C)=C1C3(C)C)[C@]1(OC(C)=O)CO[C@@H]1C[C@@H]2O` [PTX, paclitaxel]?
Answer: IC50 at 48 h [1]: 27.8 ± 3.3 nM; IC50 [2]: 218 ± 54.2 nM
